# Assay results published in patent publication US20250235455A1, “AQUEOUS TICAGRELOR SOLUTIONS, METHOD OF MANUFACTURING AND USES” (HYLORIS DEVELOPMENTS SA, priority 2022, published 2025).
# Columns and labels:
# Assay type in all cases: physicochemical
# [1] = Dilution of a concentrated ticagrelor vial
# Text: However, this was not possible with a 0.9 w/v % NaCl solution as diluent for the concentrated ticagrelor solution.
# [2] = Stability of ticagrelor 6 mg/ml in HPβCD 40% w/w, buffer pH 4.5, 5.5, 6.5, stored at 40° C. and 75% RH (HPLC related substances)
# Description: HPβCD was dissolved in a buffer solution of pH 4.5, 5.5 or 6.5 prepared separately in water. […] The ticagrelor in buffer solution was filtered through a 0.22 micron filtered and filled in USP Type I glass vials. The vials were stoppered and stored. All precautions were taken during manufacturing, such as N2 purging and avoiding direct exposure to light. The vials were stored at 40° C. and 75% Relative Humidity (RH).
# To determine the stability of the formulations, batches were evaluated using a related substance method on HPLC.
# (§1) A Gradient HPLC method was used to analyze impurities in formulations using a YMC-Pack Pro C18 column (100×4.6 mm, S-3 μm 12 nm). Good separation was obtained for all the impurities. • Amine impurity: (1S,2S,3R,5S)-3-(7-amino-5-(propylsulfanyl)-3H-[1,2,3]triazolo[4,5-d]pyrimidin-3-yl)-5-(2-hydroxyethoxy)cyclopentane-1,2-diol. This is a process related degradant impurity. • Regiomer impurity: (1S, 2S, 3R, 5S)-3-((3-((1R,2S)-2-(3,4-Difluorophenyl)cyclopropyl)-5-(propylsulfanyl)-3H-[1,2,3]triazolo[4,5-d]pyrimidin-7-yl)amino)-5-(2-hydroxyethoxy)cyclopentane-1,2-diol. This is a process related degradant impurity. • Acetal impurity: 2-[[(3aR,4S,6S,6aS)-6-[7-[1R,2S)-2-(3,4-difluorophenyl)-cyclopropyl]amino]-5-(propylsulfanyl)-3H-[1,2,3]triazolo-[4,5-d]pyrimidin-3-yl]-2,2-dimethyltetrahydro-2H-3aHcyclopenta[d][1,3]dioxol-4-yl]oxy]ethan-1-ol.
# [3] = Storage stability of ticagrelor 6 mg/ml in HPβCD 40% w/w, phosphate buffer pH 7.5, at 40° C. and 75% RH
# Text: as §1
# First HPβCD was dissolved in a phosphate buffer solution of pH 7.5 prepared separately in water. […] The solution was filtered through a 0.22 micrometer filter and filled in USP Type I amber colored glass vials. The vials were stoppered and stored. All precautions were taken during manufacturing, such as N2 purging and avoiding direct exposure to light.
# [4] = Flocculation test
# [5] = pH 4.5, T = 2 weeks, 40° C./75% RH
# [6] = pH 4.5, T = 4 weeks, 40° C./75% RH
# [7] = pH 5.5, T = 2 weeks, 40° C./75% RH
# [8] = pH 5.5, T = 4 weeks, 40° C./75% RH
# [9] = pH 6.5, T = 2 weeks, 40° C./75% RH
# [10] = pH 6.5, T = 4 weeks, 40° C./75% RH
# [11] = pH 7.5, T = 4 weeks, 40° C./75% RH
# [12] = pH 7.5, T = 8 weeks, 40° C./75% RH
# [13] = pH 7.5, T = 12 weeks, 40° C./75% RH
# [14] = pH 7.5, T = 24 Weeks, 40° C./75% RH
smiles,measurement,setting,value
"CCCSc1nc(N[C@@H]2C[C@H]2c2ccc(F)c(F)c2)c2nnn([C@@H]3C[C@H](OCCO)[C@@H](O)[C@H]3O)c2n1 [Ticagrelor, (1S,2S,3R,5S)-3-{7-[(1R,2S)-2-(3,4-difluorophenyl)cyclopropylamino]5-(propylthio)-3H-(1,2,3)triazolo (4,5-D)pyrimidin-3-yl}-5-(2 hydroxyethoxy)cyclopentane-1,2-diol]",Clear solution on dilution,[1]; 0.9 w/v % NaCl solution as diluent,not possible
same,Appearance after dilution,"[1]; 1 vial of 8 ml, 65 mg ticagrelor, about 3 g HPβCD, diluted with 25 ml 5 w/v % dextrose",clear solution
same,Regiomer impurity level,"[2]; 4 weeks 40° C. and 75% RH, specification limit 0.3%",~0.3%
same,Acetal impurity content,"[2]; pH 4.5, T = 0",0.05%
same,Amine impurity content,"[2]; pH 4.5, T = 0",0.05%
same,"Content of unnamed impurity, relative retention time 1.52","[2]; pH 4.5, T = 0",0.03%
same,Oxidative impurity 1 content,"[2]; pH 4.5, T = 0",0.00%
same,Oxidative impurity 2 content,"[2]; pH 4.5, T = 0",0.00%
same,Regiomer impurity content,"[2]; pH 4.5, T = 0",0.00%
same,Sum Impurities >0.05,"[2]; pH 4.5, T = 0",0.22%
same,Total Impurities,"[2]; pH 4.5, T = 0",0.36%
same,Triol impurity content,"[2]; pH 4.5, T = 0",0.05%
same,Acetal impurity content,[2]; [5],0.06%
same,Amine impurity content,[2]; [5],0.05%
same,"Content of unnamed impurity, relative retention time 1.52",[2]; [5],0.04%
same,Oxidative impurity 1 content,[2]; [5],0.00%
same,Oxidative impurity 2 content,[2]; [5],0.00%
same,Regiomer impurity content,[2]; [5],0.00%
same,Sum Impurities >0.05,[2]; [5],0.23%
same,Total Impurities,[2]; [5],0.40%
same,Triol impurity content,[2]; [5],0.05%
same,Acetal impurity content,[2]; [6],0.05%
same,Amine impurity content,[2]; [6],0.05%
same,"Content of unnamed impurity, relative retention time 1.52",[2]; [6],0.03%
same,Oxidative impurity 1 content,[2]; [6],0.01%
same,Oxidative impurity 2 content,[2]; [6],0.02%
same,Regiomer impurity content,[2]; [6],0.42%
same,Sum Impurities >0.05,[2]; [6],0.63%
same,Total Impurities,[2]; [6],0.80%
same,Triol impurity content,[2]; [6],0.05%
same,Acetal impurity content,"[2]; pH 5.5, T = 0",0.05%
same,Amine impurity content,"[2]; pH 5.5, T = 0",0.04%
same,"Content of unnamed impurity, relative retention time 1.52","[2]; pH 5.5, T = 0",0.02%
same,Oxidative impurity 1 content,"[2]; pH 5.5, T = 0",0.00%
same,Oxidative impurity 2 content,"[2]; pH 5.5, T = 0",0.00%
same,Regiomer impurity content,"[2]; pH 5.5, T = 0",0.00%
same,Sum Impurities >0.05,"[2]; pH 5.5, T = 0",0.16%
same,Total Impurities,"[2]; pH 5.5, T = 0",0.33%
same,Triol impurity content,"[2]; pH 5.5, T = 0",0.05%
same,Acetal impurity content,[2]; [7],0.05%
same,Amine impurity content,[2]; [7],0.05%
same,"Content of unnamed impurity, relative retention time 1.52",[2]; [7],0.03%
same,Oxidative impurity 1 content,[2]; [7],0.00%
same,Oxidative impurity 2 content,[2]; [7],0.00%
same,Regiomer impurity content,[2]; [7],0.00%
same,Sum Impurities >0.05,[2]; [7],0.21%
same,Total Impurities,[2]; [7],0.36%
same,Triol impurity content,[2]; [7],0.05%
same,Acetal impurity content,[2]; [8],0.05%
same,Amine impurity content,[2]; [8],0.04%
same,"Content of unnamed impurity, relative retention time 1.52",[2]; [8],0.02%
same,Oxidative impurity 1 content,[2]; [8],0.01%
same,Oxidative impurity 2 content,[2]; [8],0.02%
same,Regiomer impurity content,[2]; [8],0.30%
same,Sum Impurities >0.05,[2]; [8],0.45%
same,Total Impurities,[2]; [8],0.65%
same,Triol impurity content,[2]; [8],0.05%
same,Acetal impurity content,"[2]; pH 6.5, T = 0",0.06%
same,Amine impurity content,"[2]; pH 6.5, T = 0",0.05%
same,"Content of unnamed impurity, relative retention time 1.52","[2]; pH 6.5, T = 0",0.03%
same,Oxidative impurity 1 content,"[2]; pH 6.5, T = 0",0.00%
same,Oxidative impurity 2 content,"[2]; pH 6.5, T = 0",0.00%
same,Regiomer impurity content,"[2]; pH 6.5, T = 0",0.00%
same,Sum Impurities >0.05,"[2]; pH 6.5, T = 0",0.22%
same,Total Impurities,"[2]; pH 6.5, T = 0",0.36%
same,Triol impurity content,"[2]; pH 6.5, T = 0",0.06%
same,Acetal impurity content,[2]; [9],0.06%
same,Amine impurity content,[2]; [9],0.05%
same,"Content of unnamed impurity, relative retention time 1.52",[2]; [9],0.04%
same,Oxidative impurity 1 content,[2]; [9],0.00%
same,Oxidative impurity 2 content,[2]; [9],0.00%
same,Regiomer impurity content,[2]; [9],0.00%
same,Sum Impurities >0.05,[2]; [9],0.23%
same,Total Impurities,[2]; [9],0.41%
same,Triol impurity content,[2]; [9],0.06%
same,Acetal impurity content,[2]; [10],0.06%
same,Amine impurity content,[2]; [10],0.05%
same,"Content of unnamed impurity, relative retention time 1.52",[2]; [10],0.03%
same,Oxidative impurity 1 content,[2]; [10],0.00%
same,Oxidative impurity 2 content,[2]; [10],0.04%
same,Regiomer impurity content,[2]; [10],0.35%
same,Sum Impurities >0.05,[2]; [10],0.56%
same,Total Impurities,[2]; [10],0.72%
same,Triol impurity content,[2]; [10],0.05%
same,Storage stability,[3]; 40° C. and 75% Relative Humidity,good storage stability
same,Acetal impurity,"[3]; pH 7.5, T = 0",0.05%
same,Amine impurity,"[3]; pH 7.5, T = 0",0.04%
same,Assay Ticagrelor,"[3]; pH 7.5, T = 0",104.27%
same,Regiomer impurity,"[3]; pH 7.5, T = 0",0.00%
same,Sum Impurities >0.05,"[3]; pH 7.5, T = 0",0.11%
same,Total Impurities,"[3]; pH 7.5, T = 0",0.31%
same,Triol impurity,"[3]; pH 7.5, T = 0",0.04%
same,Acetal impurity,[3]; [11],0.05%
same,Amine impurity,[3]; [11],0.05%
same,Assay Ticagrelor,[3]; [11],104.47%
same,Regiomer impurity,[3]; [11],0.01%
same,Sum Impurities >0.05,[3]; [11],0.14%
same,Total Impurities,[3]; [11],0.32%
same,Triol impurity,[3]; [11],0.05%
same,Acetal impurity,[3]; [12],0.05%
same,Amine impurity,[3]; [12],0.05%
same,Assay Ticagrelor,[3]; [12],102.59%
same,Regiomer impurity,[3]; [12],0.04%
same,Sum Impurities >0.05,[3]; [12],0.15%
same,Total Impurities,[3]; [12],0.29%
same,Triol impurity,[3]; [12],0.05%
same,Acetal impurity,[3]; [13],0.05%
same,Amine impurity,[3]; [13],0.05%
same,Assay Ticagrelor,[3]; [13],102.31%
same,Regiomer impurity,[3]; [13],0.08%
same,Sum Impurities >0.05,[3]; [13],0.23%
same,Total Impurities,[3]; [13],0.41%
same,Triol impurity,[3]; [13],0.04%
same,Acetal impurity,[3]; [14],0.05%
same,Amine impurity,[3]; [14],0.07%
same,Assay Ticagrelor,[3]; [14],104.39%
same,Regiomer impurity,[3]; [14],0.16%
same,Sum Impurities >0.05,[3]; [14],0.33%
same,Total Impurities,[3]; [14],0.35%
same,Triol impurity,[3]; [14],0.05%
same,Flocculation test,"[4]; HPβCD 25% w/w, ticagrelor 5 mg/ml",did not pass
same,Flocculation test,"[4]; HPβCD 30% w/w, ticagrelor 5 mg/ml",passed
same,Flocculation test,"[4]; HPβCD 35% w/w, ticagrelor 5 mg/ml",passed
same,Flocculation test,"[4]; HPβCD 35% w/w, ticagrelor 10 mg/ml",did not pass
same,Flocculation test,"[4]; HPβCD 40% w/w, ticagrelor 5 mg/ml",passed
same,Flocculation test,"[4]; HPβCD 40% w/w, ticagrelor 10 mg/ml",passed
same,Flocculation test,"[4]; SBECD 40% w/w, ticagrelor 5 mg/ml",passed
